# Reference: patent US20250154115A1, “ARYLBENZOISOXAZOLE COMPOUNDS AS IP6K AND IPMK INHIBITORS AND METHODS OF USE THEREOF” (THE UNIVERSITY OF NORTH CAROLINA AT CHAPEL HILL, priority 2022, published 2025)
# Columns and labels:
# Assay type in all cases: biochemical
# IP6K1 = IP6K1 (Homo sapiens (Human), UniProt Q92551); experiment: Enzyme-coupled assay of IP6K1 activity (Dipp1-coupled, malachite green Pi release)
# Protocol: (§1) […] The cells were disrupted using a constant cell disruption system (Constant Systems) under 20 kPsi.
# (§2) Pi release was determined with a malachite green colorimetric assay.^45 Where indicated, TNP (Cayman Chemical) was added to the assays (FIG. 2A-E).
# IP6K3 = IP6K3 (Homo sapiens (Human), UniProt Q96PC2); experiment: Enzyme-coupled assay of IP6K3 activity (Dipp1-coupled, malachite green Pi release)
# IP6K2 = IP6K2 (Homo sapiens (Human), UniProt Q9UHH9); experiment: Enzyme-coupled assay of IP6K2 activity (Dipp1-coupled, malachite green Pi release)
# Protocol: as §1, §2
# IPMK = IPMK (Homo sapiens (Human), UniProt Q8NFU5); experiment: Enzyme-coupled assay, IPMK IC50
# [1] = determined from enzyme-coupled assays
# IP6K1, sequence (Q92551 whole entry): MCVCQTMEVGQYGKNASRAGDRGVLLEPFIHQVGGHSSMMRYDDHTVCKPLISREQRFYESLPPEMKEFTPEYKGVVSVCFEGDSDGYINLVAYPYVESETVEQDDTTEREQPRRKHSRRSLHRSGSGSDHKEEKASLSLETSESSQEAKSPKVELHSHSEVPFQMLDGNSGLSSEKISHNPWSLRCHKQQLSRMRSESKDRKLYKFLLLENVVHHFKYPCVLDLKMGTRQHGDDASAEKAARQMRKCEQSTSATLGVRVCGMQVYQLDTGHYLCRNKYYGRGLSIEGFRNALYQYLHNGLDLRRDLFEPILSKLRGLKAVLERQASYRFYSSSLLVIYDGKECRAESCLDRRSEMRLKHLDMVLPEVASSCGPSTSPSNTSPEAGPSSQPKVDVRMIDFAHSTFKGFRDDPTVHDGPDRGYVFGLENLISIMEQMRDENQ
# IP6K3, sequence (Q96PC2 whole entry): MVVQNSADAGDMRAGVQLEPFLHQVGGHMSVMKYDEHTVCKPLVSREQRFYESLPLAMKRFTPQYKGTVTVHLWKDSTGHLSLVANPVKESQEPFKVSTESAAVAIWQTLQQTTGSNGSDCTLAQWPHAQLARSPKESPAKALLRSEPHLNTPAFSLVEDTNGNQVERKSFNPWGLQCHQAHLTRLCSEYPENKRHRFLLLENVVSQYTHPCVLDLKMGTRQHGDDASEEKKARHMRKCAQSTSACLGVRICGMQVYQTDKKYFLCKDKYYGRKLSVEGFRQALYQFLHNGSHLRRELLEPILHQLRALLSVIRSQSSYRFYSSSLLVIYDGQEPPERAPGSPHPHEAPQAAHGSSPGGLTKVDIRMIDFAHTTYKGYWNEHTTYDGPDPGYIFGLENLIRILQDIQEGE
# IP6K2, sequence (Q9UHH9 whole entry): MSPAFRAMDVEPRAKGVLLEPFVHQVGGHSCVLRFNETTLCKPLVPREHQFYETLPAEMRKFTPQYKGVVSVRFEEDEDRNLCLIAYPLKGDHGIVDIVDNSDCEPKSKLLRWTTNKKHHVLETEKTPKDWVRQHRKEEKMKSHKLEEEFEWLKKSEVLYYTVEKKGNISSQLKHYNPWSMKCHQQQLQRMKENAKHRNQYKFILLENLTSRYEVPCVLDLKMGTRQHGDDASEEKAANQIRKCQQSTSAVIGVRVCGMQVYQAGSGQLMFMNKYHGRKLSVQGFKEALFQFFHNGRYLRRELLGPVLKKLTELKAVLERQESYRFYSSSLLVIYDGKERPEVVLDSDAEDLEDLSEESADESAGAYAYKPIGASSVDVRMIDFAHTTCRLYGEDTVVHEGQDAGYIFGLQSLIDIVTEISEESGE
# IPMK, sequence (Q8NFU5 whole entry, species assumed): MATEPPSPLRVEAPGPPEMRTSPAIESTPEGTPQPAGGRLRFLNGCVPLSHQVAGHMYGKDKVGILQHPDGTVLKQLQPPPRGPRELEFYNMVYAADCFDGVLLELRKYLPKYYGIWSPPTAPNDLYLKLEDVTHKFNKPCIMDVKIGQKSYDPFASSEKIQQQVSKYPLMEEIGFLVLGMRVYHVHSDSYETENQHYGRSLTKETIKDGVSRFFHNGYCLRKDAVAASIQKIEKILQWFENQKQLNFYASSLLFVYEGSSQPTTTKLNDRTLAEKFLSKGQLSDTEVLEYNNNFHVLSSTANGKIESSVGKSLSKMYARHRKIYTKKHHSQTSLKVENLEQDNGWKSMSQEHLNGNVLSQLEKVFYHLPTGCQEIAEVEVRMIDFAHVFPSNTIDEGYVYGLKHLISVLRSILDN
structure (smiles),measurement,setting,value
O=C(O)c1ccc2onc(-c3ccccc3)c2c1 [Cmpd 91],IC50,"IP6K1; enzyme-coupled assay, Table 6",1000 to 100000 nM
same,IC50,"IP6K3; enzyme-coupled assay, Table 6",100 to 1000 nM
same,IC50,"IP6K2; enzyme-coupled assay, Table 6",1000 to 100000 nM
O=c1[nH]c(-c2ccc3noc(-c4ccccc4)c3c2)no1 [Cmpd 124],IC50,IP6K1; [1],100 to 1000 nM
same,IC50,IP6K3; [1],100 to 1000 nM
same,IC50,IPMK; [1],10 to 100 nM
same,IC50,IP6K2; [1],100 to 1000 nM
O=c1[nH]c(-c2ccc3noc(-c4ccc(-c5ccccc5)cc4)c3c2)no1 [Cmpd 125],IC50,IP6K1; [1],10 to 100 nM
same,IC50,IP6K3; [1],< 10 nM
same,IC50,IPMK; [1],< 10 nM
same,IC50,IP6K2; [1],10 to 100 nM
O=C(Nc1ccc(-c2onc3ccc(-c4noc(=O)[nH]4)cc23)cc1)C1CC1 [Cmpd 126],IC50,IP6K1; [1],100 to 1000 nM
same,IC50,IP6K3; [1],10 to 100 nM
same,IC50,IPMK; [1],10 to 100 nM
same,IC50,IP6K2; [1],100 to 1000 nM
CN(C)C(=O)/C=C/c1ccc2noc(-c3ccccc3)c2c1 [Compound 9],IP6K3 IC50,"IP6K3; enzyme-coupled assay, Table 1",−
O=C(O)/C=C/c1ccc2noc(-c3ccccc3)c2c1 [Compound 10],IC50,"IP6K1; enzyme-coupled assay, Table 1",100 to 1000 nM
same,IC50,"IP6K3; enzyme-coupled assay, Table 1",1000 to 100000 nM
Cc1cc(C)cc(-c2onc3ccc(/C=C/C(=O)O)cc23)c1 [Compound 11],IC50,"IP6K1; enzyme-coupled assay, Table 1",100 to 1000 nM
same,IC50,"IP6K3; enzyme-coupled assay, Table 1",100 to 1000 nM
same,IC50,"IP6K2; enzyme-coupled assay, Table 1",100 to 1000 nM
O=C(O)/C=C/c1ccc2noc(-c3ccc(OC(F)(F)F)cc3)c2c1 [Compound 14],IC50,"IP6K3; enzyme-coupled assay, Table 1",1000 to 100000 nM
O=C(O)/C=C/c1ccc2noc(-c3ccc(Oc4ccccc4)cc3)c2c1 [Compound 15],IC50,"IP6K3; enzyme-coupled assay, Table 1",100 to 1000 nM
O=C(O)/C=C/c1ccc2noc(-c3ccc(-c4ccccc4)cc3)c2c1 [Compound 16],IC50,"IP6K3; enzyme-coupled assay, Table 1",100 to 1000 nM
Cc1cc(C)cc(-c2onc3ccc([C@@H]4C[C@H]4C(=O)O)cc23)c1 [Compound 17],IC50,"IP6K1; enzyme-coupled assay, Table 1",10 to 100 nM
same,IC50,"IP6K3; enzyme-coupled assay, Table 1",1000 to 100000 nM
same,IC50,"IP6K2; enzyme-coupled assay, Table 1",10 to 100 nM
"Cc1cccc(-c2onc3ccc(C(=O)O)cc23)c1 [Compound 18, 3-(m-tolyl)benzo[c]isoxazole-5-carboxylic acid]",IC50,"IP6K3; enzyme-coupled assay, Table 2",1000 to 100000 nM
same,IPMK IC50,"IPMK; enzyme-coupled assay, Table 2",−
Cc1cc(C)cc(-c2onc3ccc(C(=O)O)cc23)c1 [Compound 19],IC50,"IP6K3; enzyme-coupled assay, Table 2",1000 to 100000 nM
same,IC50,"IPMK; enzyme-coupled assay, Table 2",100 to 1000 nM
CC(C)NC(=O)c1ccc2noc(-c3ccccc3)c2c1 [Compound 22],IC50,"IP6K1; enzyme-coupled assay, Table 2",1000 to 100000 nM
same,IC50,"IP6K3; enzyme-coupled assay, Table 2",1000 to 100000 nM
same,IPMK IC50,"IPMK; enzyme-coupled assay, Table 2",−
same,IC50,"IP6K2; enzyme-coupled assay, Table 2",100 to 1000 nM
O=C(O)c1ccc2noc(-c3ccc(Oc4ccccc4)cc3)c2c1 [Compound 24],IC50,"IP6K3; enzyme-coupled assay, Table 2",100 to 1000 nM
same,IC50,"IPMK; enzyme-coupled assay, Table 2",100 to 1000 nM
CNC(=O)c1ccc2noc(-c3ccc(-c4ccccc4)cc3)c2c1 [Compound 26],IC50,"IP6K1; enzyme-coupled assay, Table 2",10 to 100 nM
same,IC50,"IP6K3; enzyme-coupled assay, Table 2",100 to 1000 nM
same,IC50,"IPMK; enzyme-coupled assay, Table 2",10 to 100 nM
same,IC50,"IP6K2; enzyme-coupled assay, Table 2",100 to 1000 nM
O=C(O)c1ccc2noc(-c3ccc(Oc4ncc(Cl)cc4Cl)cc3)c2c1 [Compound 28],IC50,"IP6K1; enzyme-coupled assay, Table 2",100 to 1000 nM
same,IC50,"IP6K3; enzyme-coupled assay, Table 2",1000 to 100000 nM
same,IC50,"IPMK; enzyme-coupled assay, Table 2",1000 to 100000 nM
O=C(O)c1ccc2noc(-c3cccc(Oc4ccccn4)c3)c2c1 [Compound 29],IC50,"IP6K3; enzyme-coupled assay, Table 2",1000 to 100000 nM
same,IC50,"IPMK; enzyme-coupled assay, Table 2",1000 to 100000 nM
O=C(O)c1ccc2noc(-c3cccc(Oc4ncc(Cl)cc4Cl)c3)c2c1 [Compound 30],IC50,"IP6K3; enzyme-coupled assay, Table 2",1000 to 100000 nM
same,IC50,"IPMK; enzyme-coupled assay, Table 2",10 to 100 nM
O=C(O)c1ccc2noc(-c3cccc(Oc4ccccc4)c3)c2c1 [Compound 33],IC50,"IP6K3; enzyme-coupled assay, Table 2",100 to 1000 nM
same,IC50,"IPMK; enzyme-coupled assay, Table 2",10 to 100 nM
O=C(O)c1ccc2noc(-c3cccc(-c4ccccc4)c3)c2c1 [Compound 34],IC50,"IP6K3; enzyme-coupled assay, Table 2",100 to 1000 nM
same,IC50,"IPMK; enzyme-coupled assay, Table 2",10 to 100 nM
same,IC50,"IP6K2; enzyme-coupled assay, Table 2",100 to 1000 nM
O=C(O)c1ccc2noc(-c3ccc(NC(=O)C4CC4)cc3)c2c1 [Compound 35],IC50,"IP6K1; enzyme-coupled assay, Table 2",1000 to 100000 nM
same,IC50,"IP6K3; enzyme-coupled assay, Table 2",100 to 1000 nM
same,IC50,"IPMK; enzyme-coupled assay, Table 2",1000 to 100000 nM
same,IC50,"IP6K2; enzyme-coupled assay, Table 2",1000 to 100000 nM
